Assay results reported in ChEMBL document CHEMBL3396995, “Synthesis and biological evaluation of novel pyrrolidine acid analogs as potent dual PPARα/γ agonists” (Bioorg Med Chem Lett, 2015).
pEC50, pIC50: −log10 of the molar value.

Legend:
[1] = biological target: T1, Peroxisome proliferator-activated receptor gamma (Homo sapiens, UniProt P37231); test: Agonist activity at GAL4 tagged human PPARgamma ligand binding domain expressed in HEK293 cells by luciferase reporter gene assay; format: cell-based
T1 sequence (P37231 whole entry): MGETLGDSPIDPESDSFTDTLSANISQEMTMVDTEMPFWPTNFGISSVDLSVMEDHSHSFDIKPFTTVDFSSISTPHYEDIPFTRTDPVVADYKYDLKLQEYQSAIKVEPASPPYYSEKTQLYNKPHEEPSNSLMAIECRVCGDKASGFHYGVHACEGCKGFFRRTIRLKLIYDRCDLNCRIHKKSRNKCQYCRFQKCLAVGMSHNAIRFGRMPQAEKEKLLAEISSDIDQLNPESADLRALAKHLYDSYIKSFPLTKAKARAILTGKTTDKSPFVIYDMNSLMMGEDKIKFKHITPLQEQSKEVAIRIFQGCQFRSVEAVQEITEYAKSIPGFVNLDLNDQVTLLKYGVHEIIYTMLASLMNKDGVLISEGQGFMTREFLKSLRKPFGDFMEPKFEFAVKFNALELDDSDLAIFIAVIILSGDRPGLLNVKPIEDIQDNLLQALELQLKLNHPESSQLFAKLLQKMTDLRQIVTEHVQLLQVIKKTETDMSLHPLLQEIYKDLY

[2] = biological target: T2, Peroxisome proliferator-activated receptor alpha (Homo sapiens, UniProt Q07869); test: Binding affinity to PPARalpha (unknown origin) using fluorescein-tagged dual PPARalpha/gamma activator by homogeneous fluorescence polarization binding assay
T2 sequence (Q07869 whole entry): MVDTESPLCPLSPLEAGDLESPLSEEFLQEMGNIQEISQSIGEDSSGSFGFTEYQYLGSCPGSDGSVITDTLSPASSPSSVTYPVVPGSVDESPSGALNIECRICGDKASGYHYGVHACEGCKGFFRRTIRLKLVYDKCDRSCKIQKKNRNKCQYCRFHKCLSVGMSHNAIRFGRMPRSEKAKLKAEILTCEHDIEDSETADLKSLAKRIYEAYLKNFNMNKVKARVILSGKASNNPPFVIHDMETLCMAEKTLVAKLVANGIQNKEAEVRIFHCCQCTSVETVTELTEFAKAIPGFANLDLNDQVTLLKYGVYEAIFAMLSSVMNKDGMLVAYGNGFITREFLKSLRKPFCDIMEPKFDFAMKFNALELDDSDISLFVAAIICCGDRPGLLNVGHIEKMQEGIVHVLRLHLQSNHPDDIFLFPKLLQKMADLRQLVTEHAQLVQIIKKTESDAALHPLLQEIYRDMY

[3] = biological target: T2, Peroxisome proliferator-activated receptor alpha; test: Agonist activity at GAL4 tagged human PPARalpha ligand binding domain expressed in HEK293 cells by luciferase reporter gene assay; format: cell-based; details: read-out: EC50
Mus musculus [4] = test: Antidiabetic activity in db/db mouse assessed as reduction in fasting glucose level at 10 mg/kg, po dosed once daily for 14 days; format: functional; details: 336 h
Mus musculus [5] = test: Lipid lowering activity in db/db mouse assessed as reduction in fasting triglyceride level at 10 mg/kg, po dosed once daily for 14 days; format: functional; details: 336 h
[6] = biological target: T1, Peroxisome proliferator-activated receptor gamma
Description: (§1) Binding affinity to PPARgamma (unknown origin) using fluorescein-tagged dual PPARalpha/gamma activator by homogeneous fluorescence polarization binding assay

[7] = biological target: T1, Peroxisome proliferator-activated receptor gamma; remark: listed apart in the source
Description: as §1

Cytochrome P450 2C9 = Cytochrome P450 2C9 (Homo sapiens, UniProt P11712); test: Inhibition of CYP2C9 (unknown origin); format: ADME
Sequence of Cytochrome P450 2C9 (P11712 whole entry): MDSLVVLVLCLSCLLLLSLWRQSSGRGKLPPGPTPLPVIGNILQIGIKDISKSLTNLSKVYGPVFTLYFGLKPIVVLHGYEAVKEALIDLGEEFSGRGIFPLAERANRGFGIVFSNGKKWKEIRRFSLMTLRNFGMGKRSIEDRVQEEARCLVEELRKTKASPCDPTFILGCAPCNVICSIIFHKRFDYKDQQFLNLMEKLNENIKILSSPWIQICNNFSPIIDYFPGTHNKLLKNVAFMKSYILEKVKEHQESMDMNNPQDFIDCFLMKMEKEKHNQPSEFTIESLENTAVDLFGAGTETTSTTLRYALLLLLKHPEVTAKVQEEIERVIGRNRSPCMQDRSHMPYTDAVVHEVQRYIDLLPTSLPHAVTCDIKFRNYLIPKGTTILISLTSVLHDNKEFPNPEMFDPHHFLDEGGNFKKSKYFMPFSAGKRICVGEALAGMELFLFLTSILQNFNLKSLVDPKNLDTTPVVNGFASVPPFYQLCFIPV

Cytochrome P450 2C19 = Cytochrome P450 2C19 (Homo sapiens, UniProt P33261); test: Inhibition of CYP2C19 (unknown origin); format: ADME
Sequence of Cytochrome P450 2C19 (P33261 whole entry): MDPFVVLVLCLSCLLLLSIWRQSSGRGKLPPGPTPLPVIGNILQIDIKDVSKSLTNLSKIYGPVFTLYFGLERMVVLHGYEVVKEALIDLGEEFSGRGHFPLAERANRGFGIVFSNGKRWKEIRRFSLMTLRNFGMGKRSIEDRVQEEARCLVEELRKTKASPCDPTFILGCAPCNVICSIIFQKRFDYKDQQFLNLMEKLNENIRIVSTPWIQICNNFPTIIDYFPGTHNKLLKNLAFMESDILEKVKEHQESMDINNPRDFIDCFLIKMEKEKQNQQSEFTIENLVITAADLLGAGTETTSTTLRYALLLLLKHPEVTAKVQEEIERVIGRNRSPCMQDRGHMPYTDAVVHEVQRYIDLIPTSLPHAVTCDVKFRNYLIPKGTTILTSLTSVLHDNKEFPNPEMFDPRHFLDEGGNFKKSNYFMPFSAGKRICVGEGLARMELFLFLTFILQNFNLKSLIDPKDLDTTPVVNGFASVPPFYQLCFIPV

[8] = Oral bioavailability in rat at 10 mg/kg; format: ADME, organism-based; details: in vivo
Rattus norvegicus = test: Volume of distribution at steady state in rat at 10 mg/kg, po; format: ADME, organism-based; design: dose 10 mg/kg, route oral; details: in vivo
[9] = Half life in rat at 10 mg/kg, po; format: ADME, organism-based; design: dose 10 mg/kg, route oral; details: in vivo

With `Cc1oc(-c2ccccc2)nc1CCOc1ccc(C[C@@H]2CN(C(=O)Oc3ccccc3)C[C@@H]2C(=O)O)cc1` the pEC50 [1] was 7.52, the pIC50 [2] was 6.74 and the pEC50 [3] was 8.30. For the same compound, the inhibition in vivo at 10 mg/kg (Mus musculus [4]) was 30%, the inhibition in vivo at 10 mg/kg (Mus musculus [5]) was 12% and the pIC50 [6] was 7.10.

For `Cc1oc(-c2ccccc2)nc1CCOc1ccc(C[C@@H]2CN(C(=O)Oc3ccccc3)C[C@@H]2C(=O)O)cc1` (racemic), the pEC50 [1] was 6.19, the pIC50 [2] was 6.21 and the pEC50 [3] was 9.00. For the same compound, the pIC50 [7] was 7.10.

In the case of `Cc1oc(-c2ccccc2)nc1CCOc1ccc(C[C@@H]2CN(c3nccc(C(F)(F)F)n3)C[C@@H]2C(=O)O)cc1`, the pEC50 [1] was 7.52, the pIC50 [2] was 6.02 and the pEC50 [3] was 7.05. The inhibition in vivo at 10 mg/kg (Mus musculus [4]) was 37%, the inhibition in vivo at 10 mg/kg (Mus musculus [5]) was 48% and the pIC50 (Cytochrome P450 2C9) was 5.49. It also gave a pIC50 (Cytochrome P450 2C19) of 5.06, a bioavailability [8] of 65% and a Vdss (Rattus norvegicus) of 0.47 L/kg. For the same compound, the half-life [9] was 1.54 h and the pIC50 [6] was 7.70.

Work on `Cc1oc(-c2ccccc2)nc1CCOc1cccc(CC[C@H]2CN(C(=O)Oc3ccccc3)C[C@@H]2C(=O)O)c1` (racemic) yielded a pEC50 [1] of 5.93, a pIC50 [2] of less than 5.00 and a pEC50 [3] of 5.59. It also gave a pIC50 [6] of 6.28.

Compound `CCOC(=O)N1C[C@H](CCc2ccc(OCCc3nc(-c4ccccc4)oc3C)cc2)[C@@H](C(=O)O)C1` (racemic) has a pEC50 [1] of less than 5.00, a pIC50 [2] of 5.74 and a pEC50 [3] of 8.00. The pIC50 [6] was 5.80.

Work on `Cc1oc(-c2ccccc2)nc1CCOc1ccc([C@@H]2CN(C(=O)Oc3ccccc3)C[C@@H]2C(=O)O)cc1` (racemic) yielded a pEC50 [1] of 5.38, a pIC50 [2] of less than 5.00 and a pEC50 [3] of less than 4.82. For the same compound, the pIC50 [6] was 5.35.

With `Cc1oc(-c2ccccc2)nc1CCOc1ccc(C[C@@H]2CN(c3nc4ccccc4o3)C[C@@H]2C(=O)O)cc1` (racemic) the pEC50 [1] was 5.68, the pIC50 [2] was 5.66 and the pEC50 [3] was 5.61. It also gave a pIC50 [6] of 6.23.

For `Cc1oc(-c2ccccc2)nc1CCOc1cccc(C[C@@H]2CN(C(=O)Oc3ccccc3)C[C@@H]2C(=O)O)c1` (racemic), the pEC50 [1] was 5.90, the pIC50 [2] was 6.66 and the pEC50 [3] was 8.00. The pIC50 [6] was 5.88.
